Experiment [1] relates to Candida albicans ATCC10231. The experiment can be described thus: MIC determination, broth microdilution, absorbance 530 nm. The format is cell-based. The settings on record: ATCC10231, 24 h, read-out: C. albicans MIC value at 50% inhibition. As to the method:
The compounds were tested against Gram-positive bacteria (Staphylococcus aureus ATCC 6538), Gram-negative bacteria (Escherichia coli ATCC 8739) and yeast (Candida albicansATCC10231). […] For bacterial strains, the EUCAST (2025) method was adapted. A few colonies of each bacterial culture previously grown on Mueller-Hinton agar for 24–48 h were suspended in normal saline and adjusted to 0.5 McFarland (1.5 × 10^8 CFU/mL). A 1/10 dilution was prepared in Mueller-Hinton broth (MHB) for the inoculation. In the wells of a 96-well flat-bottom microtiter plate, double serial dilutions of each compound were prepared in MHB. Each well was inoculated with the bacteria to achieve ca. 5 × 10^5 CFU/mL, and the plates were incubated at 37 °C overnight. Positive control (bacteria in culture medium only) and negative control (culture medium) were prepared. Each compound was tested in duplicate. After incubation, the plates were inspected visually for growth inhibition. To test the antimicrobial activity of DMSO, double serial dilutions of DMSO in broth medium were prepared and processed as the samples, but without the addition of the compounds. The antibacterial drug ciprofloxacin was used as a reference for comparison.
For Candida albicans, the same procedure applied to bacteria was used, except after inoculation, the plates were incubated at 35 °C for 24 h, and after incubation, the absorbance was measured at 530 nm using a plate reader. […] The absorbance of the wells was corrected by subtracting the absorbance of the blank. […] The antifungal drug fluconazole was used as a reference for comparison.
In general terms: Broth dilution looks for growth in wells or tubes with falling amounts of substance.

Experiment [2] has as its system HT29 colorectal cancer cell line. In words: SRB antiproliferative assay. The format is cell-based. The settings on record: Homo sapiens, HT-29, 72 h, read-out: Cytotoxicity (as of %control) IC50 value, HT29. On the procedure:
(§1) All malignancy cell lines were cultured in high glucose DMEM (Bio Whittaker, Verviers, Belgium) containing 10% FBS, 4-(2-hydroxyethyl)-1-piperazineethanesulfonic acid (HEPES) Buffer (10 mM), L-glutamine (2 mM), gentamicin (50 µg/mL), penicillin (100 U/mL), and streptomycin sulfate ([…]) from Sigma (St. Luis, MO, USA) whereas Sulforhodamine B was from Santa Cruz Biotechnology (Inc. Texas, USA). Surviving cancer cell lines provide numerous advantages; they provide a pure and continuous supply of cells, thus overcoming any ethical barriers concerning human tissue usage, and are cost-effective. For cytotoxicity screening, adherent monolayers of all procured malignancies’ cell lines were examined. Periodontal ligament fibroblasts (PDL) were used to determine selective cytotoxicity.
For orientation: The SRB assay estimates cell density from bound dye.

Experiment [3] concerns CACO2 colorectal cancer cell line. In words: SRB antiproliferative assay. The format is cell-based. The note with it: Homo sapiens, Caco-2, 72 h, read-out: Cytotoxicity (as of %control) IC50 value, CACO2. As to the method: as §1
Experiment [4] relates to HCT116 colorectal cancer cell line. In words: SRB antiproliferative assay. The experiment is classed as cell-based. The settings on record: Homo sapiens, HCT-116, 72 h, read-out: Cytotoxicity (as of %control) IC50 value, HCT116. On the procedure: as §1
The subject of another experiment is A375 skin melanoma. The experiment can be described thus: SRB antiproliferative assay. The experiment is classed as cell-based. The note with it: Homo sapiens, A-375, 72 h; read-out: Cytotoxicity (as of %Control) IC50 value, A375 skin melanoma. On the procedure:
as §1

The subject of experiment [5] is SW620 colorectal cancer cell line. In words: SRB antiproliferative assay. The format is cell-based. The note with it: Homo sapiens, SW-620, 72 h; read-out: Cytotoxicity (as of %control) IC50 value, SW620. As to the method: as §1
The next experiment has as its system U87 glioblastoma. The experiment can be described thus: SRB antiproliferative assay. The experiment is classed as cell-based. The settings on record: Homo sapiens, 72 h, read-out: Cytotoxicity (as of %Control) IC50 value, U87 Gliobalstoma. As to the method: as §1
Experiment [6] concerns BT-549 invasive mammary malignancy. In words: SRB antiproliferative assay. The experiment is classed as cell-based, human. The note with it: Homo sapiens, BT-549, 72 h; read-out: Cytotoxicity (as of %control) IC50 value, BT-549 invasive mammary malignancy. As to the method:
as §1

Experiment [7] concerns PANC1 pancreatic cell line. In words: SRB antiproliferative assay. The note with it: Homo sapiens, PANC-1, 72 h, read-out: Cytotoxicity (as of %control) IC50 value, PANC1. The experiment is classed as cell-based, human. On the procedure:
as §1

A further experiment concerns PC3 prostate malignancy. The experiment can be described thus: SRB antiproliferative assay. The experiment is classed as cell-based, human. The note with it: Homo sapiens, 72 h, read-out: Cytotoxicity (as of %Control) IC50 value, PC3 prostate malignancy. On the procedure: as §1
For another experiment, the system named is T47D mammary malignancy. In words: SRB antiproliferative assay. The experiment is classed as cell-based, human. The settings on record: Homo sapiens, T47D, 72 h; read-out: Cytotoxicity (as of %control) IC50 value, T47D mammary malignancy. On the procedure: as §1
Experiment [8] deals with MDA-MB-231 invasive mammary malignancy. In words: SRB antiproliferative assay. The note with it: Homo sapiens, MDA-MB-231, 72 h, read-out: Cytotoxicity (as of %control) IC50 value, MDA-MB-231 invasive mammary malignancy. The experiment is classed as cell-based, human. As to the method: as §1
Experiment [9] deals with SW480 colorectal cancer cell line. The experiment can be described thus: SRB antiproliferative assay. The note with it: Homo sapiens, SW480, 72 h; read-out: Cytotoxicity (as of %control) IC50 value, SW480. The format is cell-based, human. As to the method:
as §1

In the next experiment the test system is A549 lung malignancy. In words: SRB antiproliferative assay. The format is cell-based, human. The note with it: Homo sapiens, A549, 72 h; read-out: Cytotoxicity (as of %Control) IC50 value, A549 lung malignancy. On the procedure:
as §1

The test system of the next experiment is MCF7 mammary malignancy. The experiment can be described thus: SRB antiproliferative assay. The experiment is classed as cell-based, human. The note with it: Homo sapiens, MCF7, 72 h, read-out: Cytotoxicity (as of %control) IC50 value, MCF7 mammary malignancy. As to the method: as §1
The subject of another experiment is Hela cervix malignancy. In words: SRB antiproliferative assay. The format is cell-based, human. The settings on record: Homo sapiens, HeLa, 72 h, read-out: Cytotoxicity (as of %Control) IC50 value, Hela cervix malignancy. As to the method:
as §1

Experiment [10] relates to MDA-MB-453 invasive mammary malignancy. In words: SRB antiproliferative assay. The note with it: Homo sapiens, MDA-MB-453, 72 h, read-out: Cytotoxicity (as of %control) IC50 value, MDA-MB-453 invasive mammary malignancy. The experiment is classed as cell-based, human. As to the method:
as §1

Values after ≈ are worked out from the molar mass of the structure shown.

One may read the MIC as the lowest concentration found to suppress growth. By IC50 is commonly meant the concentration needed to halve the response being measured. On to `COc1ccc(/C=N/NC(=S)N/N=C/c2ccc(OC)cc2)cc1` [L2, 1,5-bis (4-methoxyanisaldehyde) thiocarbohydrazine], for which the MIC in experiment [1] was determined as 31.3 µg/mL (≈ 91.4 µM). Also, the IC50 is above 200 µM in experiment [2]; above 200 µM in [3]; above 200 µM in experiment [4]; above 200 µM in the experiment with A375 skin melanoma; 117 ± 3.81 µM in experiment [5]; above 200 µM in the experiment with U87 glioblastoma. Also, the IC50 is 94.8 ± 4.17 µM in experiment [6]; above 200 µM in experiment [7]; above 200 µM with PC3 prostate malignancy; above 200 µM in the experiment on T47D mammary malignancy; above 200 µM in experiment [8]; 51.6 ± 3.07 µM in experiment [9]. Besides, the IC50 with A549 lung malignancy is 36.6 ± 0.2 µM; in the experiment with MCF7 mammary malignancy it was above 200 µM; in the experiment on Hela cervix malignancy, above 200 µM; in [10], above 200 µM.

Values taken from PMC12394552, “Multi-biological activity evaluation of Sn(П), Zn(П) and Fe(П) complexes based on thiocarbohydrazide schiff bases: synthesis, spectroscopic investigations and fluorescence studies” (Scientific Reports, 2025).
